Among the data in ChEMBL document CHEMBL5696442, “Discovery of type II inhibitors of TGFβ-activated kinase 1 (TAK1) and mitogen-activated protein kinase kinase kinase kinase 2 (MAP4K2)” (J Med Chem, 2015) are residual activity and inhibition values, retold here.

In test [1] the target is Serine/threonine-protein kinase pim-1 (Homo sapiens) (UniProt P11309). As to the kind of experiment: Inhibition of PIM1 (unknown origin) at 1 uM by Ambit Kinomescan binding assay relative to control; values are per cent of control.
Chain of Serine/threonine-protein kinase pim-1 (Homo sapiens) (P11309 whole entry, looked up): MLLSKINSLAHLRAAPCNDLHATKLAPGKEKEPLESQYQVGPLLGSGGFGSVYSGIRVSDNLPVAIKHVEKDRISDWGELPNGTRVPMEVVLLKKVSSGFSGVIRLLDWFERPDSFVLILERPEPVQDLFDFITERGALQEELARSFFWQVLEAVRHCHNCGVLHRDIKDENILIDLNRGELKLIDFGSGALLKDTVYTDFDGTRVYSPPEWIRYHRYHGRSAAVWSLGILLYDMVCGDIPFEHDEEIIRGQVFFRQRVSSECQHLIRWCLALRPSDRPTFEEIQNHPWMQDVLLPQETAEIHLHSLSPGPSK
Test [2] deals with T1, Myotonin-protein kinase (Homo sapiens) (UniProt Q09013).
T1 sequence (whole entry): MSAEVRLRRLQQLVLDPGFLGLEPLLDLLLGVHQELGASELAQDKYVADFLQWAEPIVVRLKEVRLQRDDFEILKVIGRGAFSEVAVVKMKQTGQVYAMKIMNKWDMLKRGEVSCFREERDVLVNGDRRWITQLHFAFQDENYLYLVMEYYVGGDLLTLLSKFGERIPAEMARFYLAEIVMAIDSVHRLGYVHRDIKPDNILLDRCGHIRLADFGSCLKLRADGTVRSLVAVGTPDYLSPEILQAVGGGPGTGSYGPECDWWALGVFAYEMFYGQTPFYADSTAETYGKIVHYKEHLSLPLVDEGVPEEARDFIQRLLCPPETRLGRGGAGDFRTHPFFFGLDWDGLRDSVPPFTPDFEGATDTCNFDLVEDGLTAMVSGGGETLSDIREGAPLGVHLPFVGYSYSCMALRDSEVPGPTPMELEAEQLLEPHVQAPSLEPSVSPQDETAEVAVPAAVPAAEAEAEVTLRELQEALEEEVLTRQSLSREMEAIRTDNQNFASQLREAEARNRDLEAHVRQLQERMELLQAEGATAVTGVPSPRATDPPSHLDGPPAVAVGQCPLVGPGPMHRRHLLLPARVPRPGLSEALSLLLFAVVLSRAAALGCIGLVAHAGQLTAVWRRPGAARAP
As to the kind of experiment: Inhibition of DMPK (unknown origin) at 1 uM by Ambit Kinomescan binding assay relative to control; values are per cent of control.

Test [3] addresses Uncharacterized serine/threonine-protein kinase SBK3 (Homo sapiens) (UniProt P0C264). As to the kind of experiment: Inhibition of SgK110 (unknown origin) at 1 uM by Ambit Kinomescan binding assay relative to control.
Test [4] has as its target Myosin-IIIa (Homo sapiens) (UniProt Q8NEV4). As to the kind of experiment: Inhibition of MYO3A (unknown origin) at 10 uM by Ambit Kinomescan binding assay relative to control.
In test [5] the target is T1, Myotonin-protein kinase (Homo sapiens). As to the kind of experiment: Inhibition of DMPK1 K2 labeling site in human Huh-7 cells at 10 uM by KiNativ Profiling analysis relative to control. The class given is cell-based.
The target of test [6] is Mitogen-activated protein kinase 7 (Homo sapiens) (UniProt Q13164). As to the kind of experiment: Inhibition of Erk5 Lys2 labeling site in human A-375 cells at 0.05 uM by KiNativ Profiling analysis relative to control. The class given is cell-based.
Chain of Mitogen-activated protein kinase 7 (Homo sapiens) (Q13164 2-816 limits assumed): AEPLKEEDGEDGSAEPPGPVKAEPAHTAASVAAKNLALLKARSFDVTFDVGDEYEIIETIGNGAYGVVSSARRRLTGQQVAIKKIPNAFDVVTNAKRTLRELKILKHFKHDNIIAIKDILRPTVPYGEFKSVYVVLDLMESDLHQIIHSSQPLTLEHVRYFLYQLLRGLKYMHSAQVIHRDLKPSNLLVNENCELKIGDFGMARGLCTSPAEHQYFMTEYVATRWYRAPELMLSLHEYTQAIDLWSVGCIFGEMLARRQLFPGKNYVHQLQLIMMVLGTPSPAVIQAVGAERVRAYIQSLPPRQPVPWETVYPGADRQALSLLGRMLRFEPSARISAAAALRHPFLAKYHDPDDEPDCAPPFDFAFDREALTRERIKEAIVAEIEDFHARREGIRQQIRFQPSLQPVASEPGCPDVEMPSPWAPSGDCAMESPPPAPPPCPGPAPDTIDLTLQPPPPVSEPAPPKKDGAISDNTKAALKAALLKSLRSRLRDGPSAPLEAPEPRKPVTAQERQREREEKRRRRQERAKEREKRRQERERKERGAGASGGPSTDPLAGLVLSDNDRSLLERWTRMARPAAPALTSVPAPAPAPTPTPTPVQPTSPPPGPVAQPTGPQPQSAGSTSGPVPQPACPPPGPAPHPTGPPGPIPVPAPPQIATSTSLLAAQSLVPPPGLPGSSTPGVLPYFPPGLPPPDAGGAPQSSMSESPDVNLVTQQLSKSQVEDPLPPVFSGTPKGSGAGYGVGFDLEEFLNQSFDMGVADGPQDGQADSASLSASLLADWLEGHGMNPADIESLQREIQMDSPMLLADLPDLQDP
Test [7] concerns the target Serine/threonine-protein kinase 26 (Homo sapiens) (UniProt Q9P289). As to the kind of experiment: Inhibition of MST4 Lys1 labeling site in human A-375 cells at 0.05 uM by KiNativ Profiling analysis relative to control. It is filed as cell-based.
Test [8] has as its target Death-associated protein kinase 3 (Homo sapiens) (UniProt O43293). As to the kind of experiment: Inhibition of DAPK3 (unknown origin) at 10 uM by Ambit Kinomescan binding assay.
Test [9] concerns the target T2, Serine/threonine-protein kinase TAO3 (Homo sapiens) (UniProt Q9H2K8).
T2 sequence (whole entry): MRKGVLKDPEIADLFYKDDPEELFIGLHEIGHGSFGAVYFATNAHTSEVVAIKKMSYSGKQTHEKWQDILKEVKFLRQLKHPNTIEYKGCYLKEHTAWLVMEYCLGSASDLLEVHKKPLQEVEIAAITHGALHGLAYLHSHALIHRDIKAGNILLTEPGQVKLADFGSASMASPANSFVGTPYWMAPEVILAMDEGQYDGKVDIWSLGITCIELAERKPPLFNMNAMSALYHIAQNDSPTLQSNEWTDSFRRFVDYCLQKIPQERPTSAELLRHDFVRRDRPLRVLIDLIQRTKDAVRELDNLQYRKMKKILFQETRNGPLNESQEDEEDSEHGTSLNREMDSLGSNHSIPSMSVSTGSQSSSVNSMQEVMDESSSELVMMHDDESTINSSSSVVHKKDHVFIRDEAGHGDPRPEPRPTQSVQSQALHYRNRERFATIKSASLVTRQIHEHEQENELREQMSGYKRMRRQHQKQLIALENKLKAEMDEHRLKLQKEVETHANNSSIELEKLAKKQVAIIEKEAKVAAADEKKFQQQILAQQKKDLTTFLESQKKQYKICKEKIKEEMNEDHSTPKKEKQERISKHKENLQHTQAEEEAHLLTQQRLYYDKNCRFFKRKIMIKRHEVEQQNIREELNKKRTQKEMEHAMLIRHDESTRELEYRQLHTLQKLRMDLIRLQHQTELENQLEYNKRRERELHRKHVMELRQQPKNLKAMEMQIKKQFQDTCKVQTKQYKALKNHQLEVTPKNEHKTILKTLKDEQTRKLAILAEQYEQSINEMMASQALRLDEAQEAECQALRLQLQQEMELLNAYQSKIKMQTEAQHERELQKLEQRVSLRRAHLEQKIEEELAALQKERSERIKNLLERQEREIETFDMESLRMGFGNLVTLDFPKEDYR
As to the kind of experiment: Inhibition of TAO3 Lys2 labeling site in human Huh-7 cell lysate at 1 uM by KiNativ Profiling analysis relative to control. It is filed as subcellular.

The source made the active and inactive calls. No cut-off for these calls is given here.

Chain of Myosin-IIIa (Homo sapiens) (Q8NEV4 whole entry): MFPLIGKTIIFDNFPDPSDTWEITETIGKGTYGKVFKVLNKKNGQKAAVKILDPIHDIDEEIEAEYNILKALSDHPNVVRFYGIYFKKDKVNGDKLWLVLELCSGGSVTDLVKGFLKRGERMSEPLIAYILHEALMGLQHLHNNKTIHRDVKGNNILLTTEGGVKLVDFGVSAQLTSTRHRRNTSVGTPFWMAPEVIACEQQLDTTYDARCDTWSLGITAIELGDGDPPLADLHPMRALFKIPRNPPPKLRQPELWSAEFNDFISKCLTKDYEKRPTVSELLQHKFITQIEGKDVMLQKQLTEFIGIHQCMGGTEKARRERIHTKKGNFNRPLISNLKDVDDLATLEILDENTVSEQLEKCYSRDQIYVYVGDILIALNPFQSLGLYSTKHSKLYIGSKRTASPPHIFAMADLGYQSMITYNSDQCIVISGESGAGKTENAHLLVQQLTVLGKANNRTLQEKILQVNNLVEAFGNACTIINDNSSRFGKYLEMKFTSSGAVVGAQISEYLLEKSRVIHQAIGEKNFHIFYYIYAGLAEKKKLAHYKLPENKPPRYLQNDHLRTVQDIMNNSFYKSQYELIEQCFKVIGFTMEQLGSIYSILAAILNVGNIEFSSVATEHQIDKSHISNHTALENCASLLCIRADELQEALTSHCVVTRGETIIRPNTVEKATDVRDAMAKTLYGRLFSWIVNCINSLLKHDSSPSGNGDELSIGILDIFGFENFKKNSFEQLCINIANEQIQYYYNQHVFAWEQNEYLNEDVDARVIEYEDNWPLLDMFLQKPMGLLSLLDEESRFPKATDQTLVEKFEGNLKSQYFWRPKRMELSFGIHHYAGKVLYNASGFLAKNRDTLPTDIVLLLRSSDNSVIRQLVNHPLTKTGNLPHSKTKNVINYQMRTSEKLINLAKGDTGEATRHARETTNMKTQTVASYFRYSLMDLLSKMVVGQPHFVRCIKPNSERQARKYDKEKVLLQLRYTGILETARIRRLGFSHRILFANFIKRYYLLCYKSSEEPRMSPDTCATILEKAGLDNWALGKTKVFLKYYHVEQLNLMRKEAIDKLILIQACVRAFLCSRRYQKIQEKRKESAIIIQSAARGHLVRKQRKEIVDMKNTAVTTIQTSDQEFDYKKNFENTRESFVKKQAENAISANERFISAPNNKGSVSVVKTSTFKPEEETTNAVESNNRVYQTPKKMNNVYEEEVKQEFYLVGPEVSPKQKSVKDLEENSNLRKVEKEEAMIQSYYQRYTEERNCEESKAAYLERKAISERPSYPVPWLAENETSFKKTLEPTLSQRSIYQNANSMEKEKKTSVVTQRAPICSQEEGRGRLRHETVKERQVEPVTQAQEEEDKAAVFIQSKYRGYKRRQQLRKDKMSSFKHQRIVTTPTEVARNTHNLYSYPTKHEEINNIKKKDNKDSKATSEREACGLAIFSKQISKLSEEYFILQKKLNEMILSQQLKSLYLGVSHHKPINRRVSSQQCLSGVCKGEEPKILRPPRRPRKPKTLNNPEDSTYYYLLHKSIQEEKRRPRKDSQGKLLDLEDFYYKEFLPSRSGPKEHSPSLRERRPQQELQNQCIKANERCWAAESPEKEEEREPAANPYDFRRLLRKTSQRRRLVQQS
Chain of Uncharacterized serine/threonine-protein kinase SBK3 (Homo sapiens) (P0C264 whole entry): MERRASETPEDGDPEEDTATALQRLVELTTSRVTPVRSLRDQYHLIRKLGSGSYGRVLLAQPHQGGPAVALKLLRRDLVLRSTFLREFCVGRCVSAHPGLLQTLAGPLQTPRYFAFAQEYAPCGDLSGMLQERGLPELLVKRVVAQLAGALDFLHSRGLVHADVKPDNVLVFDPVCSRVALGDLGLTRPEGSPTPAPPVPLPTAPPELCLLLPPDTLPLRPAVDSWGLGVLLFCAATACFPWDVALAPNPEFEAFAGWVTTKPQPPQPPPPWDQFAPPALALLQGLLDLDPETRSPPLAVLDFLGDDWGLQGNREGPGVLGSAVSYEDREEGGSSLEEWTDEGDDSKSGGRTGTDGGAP
Chain of Death-associated protein kinase 3 (Homo sapiens) (O43293 whole entry, looked up): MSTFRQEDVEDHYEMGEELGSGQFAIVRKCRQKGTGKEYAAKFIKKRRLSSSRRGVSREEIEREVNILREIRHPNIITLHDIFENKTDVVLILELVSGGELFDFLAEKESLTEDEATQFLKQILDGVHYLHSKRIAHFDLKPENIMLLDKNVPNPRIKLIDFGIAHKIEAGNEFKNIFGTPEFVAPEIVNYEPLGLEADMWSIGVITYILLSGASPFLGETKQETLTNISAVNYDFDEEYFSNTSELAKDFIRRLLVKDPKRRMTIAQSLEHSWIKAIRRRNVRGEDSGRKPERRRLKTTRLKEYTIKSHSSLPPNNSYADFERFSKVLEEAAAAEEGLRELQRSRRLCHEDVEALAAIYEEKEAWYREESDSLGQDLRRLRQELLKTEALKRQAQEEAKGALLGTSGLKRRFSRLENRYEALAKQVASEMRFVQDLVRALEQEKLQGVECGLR
Chain of Serine/threonine-protein kinase 26 (Homo sapiens) (Q9P289 2-416 limits assumed): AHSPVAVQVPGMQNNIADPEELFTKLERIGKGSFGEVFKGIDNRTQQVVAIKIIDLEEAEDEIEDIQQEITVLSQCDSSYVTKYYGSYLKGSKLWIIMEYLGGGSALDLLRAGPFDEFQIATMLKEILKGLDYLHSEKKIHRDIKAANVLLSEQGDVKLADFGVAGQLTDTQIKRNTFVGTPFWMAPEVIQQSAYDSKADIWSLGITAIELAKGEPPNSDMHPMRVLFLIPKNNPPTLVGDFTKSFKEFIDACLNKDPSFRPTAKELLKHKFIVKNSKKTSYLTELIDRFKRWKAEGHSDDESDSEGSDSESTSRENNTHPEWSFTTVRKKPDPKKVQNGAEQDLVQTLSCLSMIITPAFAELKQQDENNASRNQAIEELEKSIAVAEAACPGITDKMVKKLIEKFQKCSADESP

On to `CCN1CCN(Cc2ccc(NC(=O)c3ccc(C)c(/C=C/c4cnc5[nH]ccc5c4OC)c3)cc2C(F)(F)F)CC1`, for which the residual activity in test [1] and in test [2] was 100% each time. Moreover, the inhibition in [3] is 45%.
Take `CCN1CCN(Cc2ccc(NC(=O)c3ccc(C)c(Oc4ccnc5[nH]ccc45)c3)cc2C(F)(F)F)CC1`: the inhibition is 6.4% in [4], 2.8% in [5], 5.3% in test [6] and -8.3% in test [7]. Also, the inhibition result in test [8] is “inactive”.
For the molecule `CNc1cc(Oc2cc(C(=O)Nc3cc(N4CCN(C)CC4)cc(C(F)(F)F)c3)ccc2C)ncn1`, in test [9], the inhibition was -1.2%.
